The values that follow are results of earlier work, collected in patent US4966770A (priority 1989, dated 1990).

Each structure is given as a SMILES string.

On to `C[C@]12C=CC(=O)C=C1CC[C@@H]1[C@@H]2C(=O)C[C@@]2(C)[C@H]1CC[C@]2(O)C(=O)CO` [prednisone], for which the solubility in alcohol entry was “slightly soluble in alcohol” and the solubility in water entry is listed as “very slightly soluble in water”.
